Laboratory results as given in ChEMBL document CHEMBL3351395, “Podoimbricatin A, a cytotoxic diterpenoid with an unprecedented 6/6/5/6-fused tetracyclic ring system from the twigs and leaves of Podocarpus imbricatus” (Bioorg Med Chem Lett, 2014).

How the values were obtained:
A549 = test: Antiproliferative activity against human A549 cells by MTT assay; assay type: functional, cell-based
NCI-H292 = test: Antiproliferative activity against human NCI-H292 cells by MTT assay; assay type: functional, cell-based

| IC50 (A549) [µM] | IC50 (NCI-H292) [µM] | SMILES |
| --- | --- | --- |
| 25.2 | 19.1 | CC1(C)CCC[C@]2(C)[C@H]3C[C@H]4C(CO)=CCO[C@@H]4[C@H]3C[C@H](O)[C@@H]12 |
| 21.5 | 17.8 | CCC(C)C1NC(=O)C(NC(=O)/C=C/c2ccccc2)C(C(C)C)Oc2ccc(cc2)/C=C/NC1=O (stereo unspecified) |
| 47.8 | 20.3 | C=C1CC[C@@H]2[C@](C)(CCC[C@]2(C)C(=O)O)[C@H]1CC/C(C)=C/C(=O)O [AGATHIC ACID] |
